Here are results for 15 molecules from patent publication US20210100905A1, “APPLICATION OF COMPOUND OR TRADITIONAL CHINESE MEDICINE EXTRACT IN PREPARATION OF NUCLEIC ACID DELIVERY AGENT, AND RELATED PRODUCTS” (INSTITUTE OF BASIC MEDICAL SCIENCES CHINESE ACADEMY OF …, priority 2018, published 2021).

The nature of the experiment: In vivo delivery experiment of lipid nucleic acid mixture (Example 13). Set-up: species or system C57 mice. Particulars: oral administration, 6 hours; for delivery effect into mouse blood and tissues (heart, spleen, kidney or intestine) compared with POPC: FIG. 117a-146b, 100 μg lipid : 1 nmol sRNA; for delivery of small RNA (PGY-sRNA-26) into kidney / delivery of small RNA (PGY-sRNA-26) into spleen / delivery of small RNA (PGY-sRNA-26) into blood / delivery of small RNA (PGY-sRNA-26) into heart / delivery of small RNA (PGY-sRNA-26) into intestine: 100 μg lipid : 1 nmol sRNA per mouse, 90° C. 15 min. As to the method: 1. Experiment animals: C57 mice, male, approximately 6 weeks old, 20-24g. Mice were raised in the SPF room of the Animal Center of the Institute of Basic Medical Sciences of Chinese Academy of Medical Sciences. The mice were fasted for 12 hours before intragastric administration.
2. Preparation of the mixture of lipid and small RNA: the prepration was conducted on the basis of a dose of 100 μg lipid: lnmol single stranded small RNA PGY-sRNA-26 per mouse as follows: lnmol of each sRNA was dissolved with 500 μl DEPC water in a glass tube, 100 μg corresponding lipid solution No.33, No.35,No.37, No.42, No.43, No.44, No.45, No.46, No.47, No.48, No.49, No.50, No.51, No.52, No.53, No.54, No.55, No.56, No.57, No.58, No.59, No.60, No.61, No.62, No.65, No.66, No.67, No.68, No.69 or No.70 (lipid chloroform solution with a concentration as shown in Table 1-1) was added, pipetted to mix thoroughly. The solution was heated in water bath at 90° C. for 15 min, naturally cooled down, and was administered via gavage.
1) Tissue sampling and extraction of RNA: 6 hours after gavage in mice, 500 μl of blood was taken from the eyeball, and was added 1.5 ml Trizol Reagent LS to thoroughly mix and lyse. Tissue sampling: the mouse was sarcrified by breaking its neck, and the thoracic and abdominal cavities of the mouse was exposed to remove the heart/whole spleen/two kidneys/intestine (5 cm of upper end), which was immediately added 2 ml Trizol Reagent (purchased from Invitrogen) and homogenized until complete lysis with a tissue homogenizer.
2) Reverse transcription of sRNA to cDNA: Reverse Transcription Kit (High-Capacity cDNA Reverse Transcription Kits, Applied Biosystems, cat. no. 4368813), was used to reverse transcribe the total RNA to cDNA, and the reverse system was as follows: template RNA (150 ng/μL) 10 μL, 10× RT buffer, 2.0 μL, 25× dNTP Mix (100 mM) 0.8 μL, random primers 2.0 μL, the Multi Scribe™ reverse Transcriptase 1.0 RNase inhibitor 1.0 μL, nuclease-free H2O 3.2 μL. After a brief centrifugation, the reaction was loaded in a PCR reactor. The reaction conditions were as follows: (1) 25° C., 10 min; (2) 37° C., 120 min; (3) 85° C., 5 min; (4) 4° C., termination of the reaction. After the reaction, 20 μL RNase-free ddH2O was added to make up the final volume to 40 μL.
LightCycler 480 fluorescence quantitative PCR instrument was used, and the PCR reaction conditions were: 95° C. , 5 min for pre-denaturation, followed by the PCR amplification cycle: (1) 95° C., 10 s; (2) 55° C., 10 s; (3) 72° C., 20 s; a total of 40 cycles; 40° C. for 10 s in the end to cool down. The forward primer and reverse primer of the amplification reaction were designed and synthesized by Beijing Qing Ke New Industrial Biotechnology Co., Ltd. (U6 F primer: GTGCAGGGTCCGAGGT (SEQ ID NO: 24), PGY-sRNA-26F primer: […] (SEQ ID NO: 34), reverse primer miR all rev: GTGCACGCTCCGAGGT (SEQ ID NO: 26)).
3) The relative expression amount was calculated by the 2-ΔCt method.
The data were represented in the form of mean±SEM. The parameter difference between the experimental group and the control group was evaluated by unpaired t test. The data were statistically analyzed by GraphPad Prism software, and P<0.05 was considered statistically significant.

As for `CCCCCC/C=C\CCCCCCCCCC(=O)OC[C@H](COP(=O)(O)OCC[N+](C)(C)C)OC(=O)CCCCCCC/C=C\CCCCCC` (stereo in doubt) [No. 69, 1-vaccenoyl-2-palmitoleoyl-sn-glycero-3-phosphocholine], the “delivery effect into mouse blood and tissues (heart, spleen, kidney or intestine) compared with POPC” value is listed as “significantly better than or equivalent to that of POPC”; the “delivery of small RNA (PGY-sRNA-26) into kidney” value is “delivers small RNA”; the “delivery of small RNA (PGY-sRNA-26) into spleen” value is given as “delivers small RNA”.
In the case of `CCCCCCCCCCCCCCCCCC(=O)OCC(COC(=O)CCCCCCCCCCCCCCCCC)OC(=O)CCCCCCCCCCCCCCC` [No. 33, 1,3-Stearin-2-Palmitin 1,3-Octadecanoyl-2-Palmitoyl-glycerol], the “delivery effect into mouse blood and tissues (heart, spleen, kidney or intestine) compared with POPC” value was “significantly better than or equivalent to that of POPC”; the “delivery of small RNA (PGY-sRNA-26) into blood” value is “delivers small RNA”; the “delivery of small RNA (PGY-sRNA-26) into heart” value was “delivers small RNA”; the “delivery of small RNA (PGY-sRNA-26) into kidney” value is “delivers small RNA”.
Turning to `CCCCC/C=C\C/C=C\CCCCCCCC(=O)OC[C@H](CO)OC(=O)CCCCCCC/C=C\C/C=C\CCCCC` [No. 35, (2S)-1-hydroxy-3-[(9Z,12Z)-octadeca-9,12-dienoyloxy] propan-2-yl (9Z,12Z)-octadeca-9,12-dienoate], the “delivery effect into mouse blood and tissues (heart, spleen, kidney or intestine) compared with POPC” value was “significantly better than or equivalent to that of POPC”; the “delivery of small RNA (PGY-sRNA-26) into heart” value was “delivers small RNA”; the “delivery of small RNA (PGY-sRNA-26) into kidney” value is reported as “delivers small RNA”.
As for `CC/C=C\C/C=C\C/C=C\CCCCCCCC(=O)OCC(O)COC(=O)CCCCCCC/C=C\C/C=C\CCCCC` (stereo not drawn) [No. 45, 1-Linolein-3-Linolenin], the “delivery effect into mouse blood and tissues (heart, spleen, kidney or intestine) compared with POPC” value is “significantly better than or equivalent to that of POPC”; the “delivery of small RNA (PGY-sRNA-26) into heart” value is “delivers small RNA”; the “delivery of small RNA (PGY-sRNA-26) into intestine” value is “delivers small RNA”; the “delivery of small RNA (PGY-sRNA-26) into kidney” value is “delivers small RNA”. For the same molecule, the “delivery of small RNA (PGY-sRNA-26) into spleen” value is listed as “delivers small RNA”.
On to `CCCCCCCCCCCCCCCC(=O)N[C@@H](CO)[C@H](O)CCCCCCCCCCCCC` [No. 53, C16 dihydroceramide (d16:0/16:0)], for which the “delivery effect into mouse blood and tissues (heart, spleen, kidney or intestine) compared with POPC” value was “significantly better than or equivalent to that of POPC”; the “delivery of small RNA (PGY-sRNA-26) into blood” value is reported as “delivers small RNA”; the “delivery of small RNA (PGY-sRNA-26) into heart” value was “delivers small RNA”; the “delivery of small RNA (PGY-sRNA-26) into kidney” value is on record as “delivers small RNA”.
For the molecule `CCCCCCCCCCCCCCCCCC(=O)N[C@@H](CO)[C@H](O)CCCCCCCCCCCCCCCCC` [No. 54, C18 dihydroceramide (d20:0/18:0)], the “delivery effect into mouse blood and tissues (heart, spleen, kidney or intestine) compared with POPC” value was “significantly better than or equivalent to that of POPC”; the “delivery of small RNA (PGY-sRNA-26) into blood” value is reported as “delivers small RNA”; the “delivery of small RNA (PGY-sRNA-26) into kidney” value was “delivers small RNA”.
As to `CCCCCCCCCCCCCCCCCCC[C@@H](O)[C@H](CO)NC(=O)CCCCCCCCCCCCCCCCC` [No. 55, C18 dihydroceramide (d22:0/18:0)], the “delivery effect into mouse blood and tissues (heart, spleen, kidney or intestine) compared with POPC” value is on record as “significantly better than or equivalent to that of POPC”; the “delivery of small RNA (PGY-sRNA-26) into blood” value is on record as “delivers small RNA”; the “delivery of small RNA (PGY-sRNA-26) into heart” value is “delivers small RNA”; the “delivery of small RNA (PGY-sRNA-26) into kidney” value is recorded as “delivers small RNA”.
`CC/C=C\C/C=C\C/C=C\CCCCCCCC(=O)OCC(COC(=O)CCCCCCCCCCCCCCC)OC(=O)CCCCCCC/C=C\C/C=C\CCCCC` (stereo not drawn) [No. 56, Triglyceride (16:0/18:2/ 18:3)]: the “delivery effect into mouse blood and tissues (heart, spleen, kidney or intestine) compared with POPC” value is recorded as “significantly better than or equivalent to that of POPC”; the “delivery of small RNA (PGY-sRNA-26) into blood” value is on record as “delivers small RNA”; the “delivery of small RNA (PGY-sRNA-26) into heart” value was “delivers small RNA”.
For `CC/C=C\C/C=C\C/C=C\CCCCCCCC(=O)OCC(COC(=O)CCCCCCC/C=C\CCCCCCCC)OC(=O)CCCCCCC/C=C\C/C=C\CCCCC` (stereo not drawn) [No. 57, Triglyceride (18:1/18:2/ 18:3)], the “delivery effect into mouse blood and tissues (heart, spleen, kidney or intestine) compared with POPC” value was “significantly better than or equivalent to that of POPC”; the “delivery of small RNA (PGY-sRNA-26) into kidney” value is “delivers small RNA”.
For `CCCCCC/C=C\CCCCCCCC(=O)OC[C@H](COP(=O)(O)OCC)OC(=O)CCCCCCC/C=C\CCCCCC` [No. 58, 1,2-dipalmitoleoyl-sn-glycero-3-phosphoethanol], the “delivery effect into mouse blood and tissues (heart, spleen, kidney or intestine) compared with POPC” value is “significantly better than or equivalent to that of POPC”; the “delivery of small RNA (PGY-sRNA-26) into heart” value is “delivers small RNA”; the “delivery of small RNA (PGY-sRNA-26) into intestine” value is listed as “delivers small RNA”.
With `CCCCCC/C=C\CCCCCCCC(=O)OC[C@H](COP(=O)(O)OCCN(C)C)OC(=O)CCCCCCCCCCCCC` [No. 59, 1-palmitoleoyl-2-myristoyl-sn-glycero-3-phospho-ethanolamine-N,N-dimethyl], the “delivery effect into mouse blood and tissues (heart, spleen, kidney or intestine) compared with POPC” value is on record as “significantly better than or equivalent to that of POPC”; the “delivery of small RNA (PGY-sRNA-26) into intestine” value is reported as “delivers small RNA”.
For `CCCCCCCC/C=C\CCCCCCCC(=O)OC[C@H](COP(=O)(O)OCCN(C)C)OC(=O)CCCCCCCCCCCCC` [No. 61, 1-oleoyl-2-myristoyl-sn-glycero-3-phospho-ethanolamine-N,N-dimethyl], the “delivery effect into mouse blood and tissues (heart, spleen, kidney or intestine) compared with POPC” value is “significantly better than or equivalent to that of POPC”; the “delivery of small RNA (PGY-sRNA-26) into heart” value is reported as “delivers small RNA”; the “delivery of small RNA (PGY-sRNA-26) into intestine” value is “delivers small RNA”; the “delivery of small RNA (PGY-sRNA-26) into kidney” value is given as “delivers small RNA”.
On to `CCCC/C=C\CCCCCCCC(=O)O[C@H](COC(=O)CCCCCCCCCCCCCCCCCCC)COP(=O)(O)OCC[N+](C)(C)C` [No. 65, 1-eicosanoyl-2-myristoleoyl-sn-glycero-3-phosphocholine], for which the “delivery effect into mouse blood and tissues (heart, spleen, kidney or intestine) compared with POPC” value is given as “significantly better than or equivalent to that of POPC”; the “delivery of small RNA (PGY-sRNA-26) into intestine” value is “delivers small RNA”; the “delivery of small RNA (PGY-sRNA-26) into kidney” value is reported as “delivers small RNA”.
As for `CC/C=C\C/C=C\C/C=C\CCCCCCCC(=O)OCC(COC(=O)CCCCCCCCCCCCCCCCC)OC(=O)CCCCCCC/C=C\C/C=C\CCCCC` (stereo not drawn) [No. 66, Triglyceride (18:0/18:2/ 18:3)], the “delivery effect into mouse blood and tissues (heart, spleen, kidney or intestine) compared with POPC” value is “significantly better than or equivalent to that of POPC”; the “delivery of small RNA (PGY-sRNA-26) into blood” value is reported as “delivers small RNA”; the “delivery of small RNA (PGY-sRNA-26) into heart” value is “delivers small RNA”; the “delivery of small RNA (PGY-sRNA-26) into intestine” value is “delivers small RNA”.
In the case of `CC/C=C\C/C=C\C/C=C\C/C=C\C/C=C\CCCC(=O)OCC(COC(=O)CCCCCCC/C=C\CCCCCCCC)OC(=O)CCCCCCC/C=C\C/C=C\CCCCC` (stereo not drawn) [No. 67, Triglyceride (18:1/18:2 /20:5)], the “delivery effect into mouse blood and tissues (heart, spleen, kidney or intestine) compared with POPC” value is “significantly better than or equivalent to that of POPC”; the “delivery of small RNA (PGY-sRNA-26) into heart” value was “delivers small RNA”; the “delivery of small RNA (PGY-sRNA-26) into intestine” value is reported as “delivers small RNA”; the “delivery of small RNA (PGY-sRNA-26) into spleen” value is “delivers small RNA”.
